The structures appear in SMILES notation. A value given as a limit tells only on which side of the number the result lay.

The test has as its target T1, HPK1 (Homo sapiens, UniProt Q92918).
T1 construct: A HiBiT tag was introduced by CRISPR on the N terminus of HPK1 in Jurkat cells; host or cells: Jurkat (ATCC TIB-152), monoclonal CRISPR HiBiT knock-in line
Nature of the test: HPK1 Cellular HiBiT Degradation Assay. Type of test: cell-based. To be noted: HiBiT-tagged HPK1 Jurkat cells, 24 hours, 10 uM to 0.1 nM; Dmax = 100 minus lowest % HPK1 remaining vs DMSO vehicle. The method, boiled down: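 Dmax is derived from four-parameter curves of % HPK1 remaining, as 100 minus the lowest value, normalized to DMSO-treated cells with parental Jurkat background subtracted. HiBiT-HPK1 knock-in Jurkat cells got compound for 24 hours (final 10 uM to 0.1 nM, 11 points) before lytic HiBiT luminescence. Cytotoxicity was checked on parallel CellTiter-Glo plates.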
In general terms: The HiBiT peptide binds its large partner to form an active luciferase.

T1 sequence (Q92918 whole entry): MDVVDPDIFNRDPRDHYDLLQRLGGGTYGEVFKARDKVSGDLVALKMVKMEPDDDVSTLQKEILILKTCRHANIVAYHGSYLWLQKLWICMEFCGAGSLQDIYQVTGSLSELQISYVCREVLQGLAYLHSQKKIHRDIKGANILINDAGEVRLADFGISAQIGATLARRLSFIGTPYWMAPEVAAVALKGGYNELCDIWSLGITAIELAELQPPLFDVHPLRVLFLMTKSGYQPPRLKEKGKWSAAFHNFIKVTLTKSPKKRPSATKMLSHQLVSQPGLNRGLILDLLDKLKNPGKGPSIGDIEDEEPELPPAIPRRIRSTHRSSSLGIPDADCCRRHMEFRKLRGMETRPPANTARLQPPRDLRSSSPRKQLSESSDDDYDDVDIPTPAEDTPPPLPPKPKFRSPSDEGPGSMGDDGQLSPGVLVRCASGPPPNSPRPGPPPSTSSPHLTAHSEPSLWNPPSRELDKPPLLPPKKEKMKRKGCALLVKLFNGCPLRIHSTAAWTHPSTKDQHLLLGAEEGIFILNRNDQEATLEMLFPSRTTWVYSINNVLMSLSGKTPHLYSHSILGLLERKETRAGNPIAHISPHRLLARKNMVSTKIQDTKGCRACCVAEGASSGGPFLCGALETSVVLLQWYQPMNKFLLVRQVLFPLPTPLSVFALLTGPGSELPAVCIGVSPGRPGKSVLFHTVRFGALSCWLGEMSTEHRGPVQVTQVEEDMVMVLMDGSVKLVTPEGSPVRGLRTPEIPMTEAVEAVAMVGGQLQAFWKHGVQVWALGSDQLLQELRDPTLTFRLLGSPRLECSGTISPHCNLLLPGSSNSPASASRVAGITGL

What is called Dmax is the largest share of the target that was removed. A lower Dmax goes with shallow degradation. Molecule `Cc1cc(F)c(Nc2nc(-c3ccc4c(c3)N([C@H]3C[C@@H](N5CCCCC5)C3)C(=O)C43CCN(C(=O)[C@@H]4CCN(C(=O)N5CCC(Nc6cccc7c6C(=O)N(C6CCC(=O)NC6=O)C7=O)CC5)C4)CC3)cc3ncn(C(C)C)c23)cc1C(=O)NC(C)C` (stereo partly drawn) [Example 69, 5-[(6-{1′-[(3R)-1-[4-({2-[2,6-dioxopiperidin-3-yl]-1,3-dioxo-2,3-dihydro-1H-isoindol-4-yl}amino)piperidine-1-carbonyl]pyrrolidine-3-carbonyl]-2-oxo-1-[(1S,3s)-3-(piperidin-1-yl)cyclobutyl]-1,2-dihydrospiro[indole-3,4′-piperidin]-6-yl}-3-(propan-2-yl)-3H-imidazo[4,5-c]pyridin-4-yl)amino]-4-fluoro-2-methyl-N-(propan-2-yl)benzamide] returned a Dmax of 45 to 65%.
The result for `Cc1cc(F)c(Nc2nc(-c3ccc4c(c3)N([C@H]3C[C@@H](N5CCCCC5)C3)C(=O)C43CCN(C(=O)c4cnn(C[C@H]5CC[C@H](Nc6cccc7c6C(=O)N(C6CCC(=O)NC6=O)C7=O)CC5)c4)CC3)cc3ncn(C(C)C)c23)cc1C(=O)NC(C)C` (stereo partly drawn) [Example 70, 4-fluoro-2-methyl-5-({6-[2-oxo-1′-(1-{[(1R,4R)-4-({2-[2,6-dioxopiperidin-3-yl]-1,3-dioxo-2,3-dihydro-1H-isoindol-4-yl}amino)cyclohexyl]methyl}-1H-pyrazole-4-carbonyl)-1-[(1s,3s)-3-(piperidin-1-yl)cyclobutyl]-1,2-dihydrospiro[indole-3,4′-piperidin]-6-yl]-3-(propan-2-yl)-3H-imidazo[4,5-c]pyridin-4-yl}amino)-N-(propan-2-yl)benzamide] reads 45 to 65%; that for `Cc1cc(F)c(Nc2nc(-c3ccc4c(c3)N([C@H]3C[C@@H](N5CCCCC5)C3)C(=O)C43CCN(C(=O)c4ccc(C(=O)N5CCN(c6ccc7c(c6)C(=O)N(C6CCC(=O)NC6=O)C7=O)CC5)cc4Cl)CC3)cc3ncn(C(C)C)c23)cc1C(=O)NC(C)C` (stereo partly drawn) [Example 71, 5-[(6-{1′-[2-chloro-4-(4-{2-[2,6-dioxopiperidin-3-yl]-1,3-dioxo-2,3-dihydro-1H-isoindol-5-yl}piperazine-1-carbonyl)benzoyl]-2-oxo-1-[(1s,3s)-3-(piperidin-1-yl)cyclobutyl]-1,2-dihydrospiro[indole-3,4′-piperidin]-6-yl}-3-(propan-2-yl)-3H-imidazo[4,5-c]pyridin-4-yl)amino]-4-fluoro-2-methyl-N-(propan-2-yl)benzamide], > 65%; that for `Cc1cc(F)c(Nc2nc(-c3ccc4c(c3)N([C@H]3C[C@@H](N5CCCCC5)C3)C(=O)C43CCN(C(=O)c4ccc(C(=O)N5CCN(c6ccc7c(c6)C(=O)N(C6CCC(=O)NC6=O)C7=O)CC5C)cc4)CC3)cc3ncn(C(C)C)c23)cc1C(=O)NC(C)C` (stereo partly drawn) [Example 72, 5-[(6-{1′-[4-(4-{2-[2,6-dioxopiperidin-3-yl]-1,3-dioxo-2,3-dihydro-1H-isoindol-5-yl}-2-methylpiperazine-1-carbonyl)benzoyl]-2-oxo-1-[(1s,3s)-3-(piperidin-1-yl)cyclobutyl]-1,2-dihydrospiro[indole-3,4′-piperidin]-6-yl}-3-(propan-2-yl)-3H-imidazo[4,5-c]pyridin-4-yl)amino]-4-fluoro-2-methyl-N-(propan-2-yl)benzamide], > 65%.
To `Cc1cc(F)c(Nc2nc(-c3ccc4c(c3)N([C@H]3C[C@@H](N5CCCCC5)C3)C(=O)C43CCN(C(=O)[C@H]4CCN(C[C@H]5CC[C@H](Nc6cccc7c6C(=O)N(C6CCC(=O)NC6=O)C7=O)CC5)C4)CC3)cc3ncn(C(C)C)c23)cc1C(=O)NC(C)C` (stereo partly drawn) [Example 73, 4-fluoro-2-methyl-5-[(6-{2-oxo-1′-[(3R)-1-{[(1R,4R)-4-({2-[2,6-dioxopiperidin-3-yl]-1,3-dioxo-2,3-dihydro-1H-isoindol-4-yl}amino)cyclohexyl]methyl}pyrrolidine-3-carbonyl]-1-[(1s,3s)-3-(piperidin-1-yl)cyclobutyl]-1,2-dihydrospiro[indole-3,4′-piperidin]-6-yl}-3-(propan-2-yl)-3H-imidazo[4,5-c]pyridin-4-yl)amino]-N-(propan-2-yl)benzamide] belongs > 65%; to `Cc1cc(F)c(Nc2nc(-c3ccc4c(c3)N([C@H]3C[C@@H](N5CCCCC5)C3)C(=O)C43CCN(C(=O)C4(C)CCN(C(=O)C5CCN(c6ccc7c(c6)C(=O)N(C6CCC(=O)NC6=O)C7=O)CC5)CC4)CC3)cc3ncn(C(C)C)c23)cc1C(=O)NC(C)C` (stereo partly drawn) [Example 74, 5-[(6-{1′-[1-(1-{2-[2,6-dioxopiperidin-3-yl]-1,3-dioxoisoindol-5-yl}piperidine-4-carbonyl)-4-methylpiperidine-4-carbonyl]-2-oxo-1-[(1s,3s)-3-(piperidin-1-yl)cyclobutyl]spiro[indole-3,4′-piperidin]-6-yl}-3-isopropylimidazo[4,5-c]pyridin-4-yl)amino]-4-fluoro-N-isopropyl-2-methylbenzamide], 45 to 65%; to `Cc1cc(F)c(Nc2nc(-c3ccc4c(c3)N([C@H]3C[C@@H](N5CCCCC5)C3)C(=O)C43CCN(C(=O)c4ccc(C(=O)N5CCC(c6cccc7c6C(=O)N([C@H]6CCC(=O)NC6=O)C7=O)CC5)cc4)CC3)cc3ncn(C(C)C)c23)cc1C(=O)NC(C)C` [Example 75, 5-[(6-{1′-[4-(4-{2-[2,6-dioxopiperidin-3-yl]-1,3-dioxo-2,3-dihydro-1H-isoindol-4-yl}piperidine-1-carbonyl)benzoyl]-2-oxo-1-[(1s,3s)-3-(piperidin-1-yl)cyclobutyl]-1,2-dihydrospiro[indole-3,4′-piperidin]-6-yl}-3-(propan-2-yl)-3H-imidazo[4,5-c]pyridin-4-yl)amino]-4-fluoro-2-methyl-N-(propan-2-yl)benzamide], < 45%.
To `Cc1cc(F)c(Nc2nc(-c3ccc4c(c3)N([C@H]3C[C@@H](N5CCCCC5)C3)C(=O)C43CCN(C(=O)c4ccc(C(=O)N5CCC(c6ccc7c(c6)C(=O)N(C6CCC(=O)NC6=O)C7=O)CC5)cc4)CC3)cc3ncn(C(C)C)c23)cc1C(=O)NC(C)C` (stereo partly drawn) [Example 76, 5-[(6-{1′-[4-(4-{2-[2,6-dioxopiperidin-3-yl]-1,3-dioxo-2,3-dihydro-1H-isoindol-5-yl}piperidine-1-carbonyl)benzoyl]-2-oxo-1-[(1s,3s)-3-(piperidin-1-yl)cyclobutyl]-1,2-dihydrospiro[indole-3,4′-piperidin]-6-yl}-3-(propan-2-yl)-3H-imidazo[4,5-c]pyridin-4-yl)amino]-4-fluoro-2-methyl-N-(propan-2-yl)benzamide] belongs 45 to 65%; to `Cc1cc(F)c(Nc2nc(-c3ccc4c(c3)N([C@H]3C[C@@H](N5CCCCC5)C3)C(=O)C43CCN(C(=O)c4ccc(C(=O)N5CCC(Cc6cccc7c6C(=O)N(C6CCC(=O)NC6=O)C7=O)CC5)cc4)CC3)cc3ncn(C(C)C)c23)cc1C(=O)NC(C)C` (stereo partly drawn) [Example 77, 5-{[6-(1′-{4-[4-({2-[2,6-dioxopiperidin-3-yl]-1,3-dioxo-2,3-dihydro-1H-isoindol-4-yl}methyl)piperidine-1-carbonyl]benzoyl}-2-oxo-1-[(1s,3s)-3-(piperidin-1-yl)cyclobutyl]-1,2-dihydrospiro[indole-3,4′-piperidin]-6-yl)-3-(propan-2-yl)-3H-imidazo[4,5-c]pyridin-4-yl]amino}-4-fluoro-2-methyl-N-(propan-2-yl)benzamide], 45 to 65%.
In the case of `Cc1cc(F)c(Nc2nc(-c3ccc4c(c3)N([C@H]3C[C@@H](N5CCCCC5)C3)C(=O)C43CCN(C(=O)c4ccc(C(=O)N5CCN(c6ccc7c(c6)C(=O)N(C6CCC(=O)NC6=O)C7=O)CC5)cc4)CC3)cc3ncn(C(C)C)c23)cc1C(=O)NC(C)C` (stereo partly drawn) [Example 78, 5-((6-(1′-(4-(4-(2-(2,6-dioxopiperidin-3-yl)-1,3-dioxoisoindolin-5-yl)piperazine-1-carbonyl)benzoyl)-2-oxo-1-((1s,3s)-3-(piperidin-1-yl)cyclobutyl)spiro[indoline-3,4′-piperidin]-6-yl)-3-isopropyl-3H-imidazo[4,5-c]pyridin-4-yl)amino)-4-fluoro-N-isopropyl-2-methylbenzamide], the greatest degradation seen (Dmax) is 45 to 65%.
`Cc1cc(F)c(Nc2nc(-c3ccc4c(c3)N([C@H]3C[C@@H](N5CCCCC5)C3)C(=O)C43CCN(C(=O)[C@H]4CC[C@@H](C(=O)N5CCN(c6ccc7c(c6)C(=O)N(C6CCC(=O)NC6=O)C7=O)CC5)CC4)CC3)cc3ncn(C(C)C)c23)cc1C(=O)NC(C)C` (stereo partly drawn) [Example 79, 5-((6-(1′-((1s,4S)-4-(4-(2-(2,6-dioxopiperidin-3-yl)-1,3-dioxoisoindolin-5-yl)piperazine-1-carbonyl)cyclohexane-1-carbonyl)-2-oxo-1-((1s,3s)-3-(piperidin-1-yl)cyclobutyl)spiro[indoline-3,4′-piperidin]-6-yl)-3-isopropyl-3H-imidazo[4,5-c]pyridin-4-yl)amino)-4-fluoro-N-isopropyl-2-methylbenzamide] registered a maximal degradation (Dmax) of 45 to 65%.
Consider `Cc1cc(F)c(Nc2nc(-c3ccc4c(c3)N([C@H]3C[C@@H](N5CCCCC5)C3)C(=O)C43CCN(C(=O)C[C@H]4CC[C@H](Nc5cccc6c5C(=O)N(C5CCC(=O)NC5=O)C6=O)CC4)CC3)cc3ncn(C(C)C)c23)cc1C(=O)NC(C)C` (stereo partly drawn) [Example 80, 5-((6-(1′-(2-((1R,4R)-4-((2-(2,6-dioxopiperidin-3-yl)-1,3-dioxoisoindolin-4-yl)amino)cyclohexyl)acetyl)-2-oxo-1-((1s,3s)-3-(piperidin-1-yl)cyclobutyl)spiro[indoline-3,4′-piperidin]-6-yl)-3-isopropyl-3H-imidazo[4,5-c]pyridin-4-yl)amino)-4-fluoro-N-isopropyl-2-methylbenzamide], for which the maximal degradation (Dmax) fell in the range of 45 to 65%.

(Values after patent US11739101B2, “Bifunctional degraders of hematopoietic progenitor kinase and therapeutic uses thereof” (Nurix Therapeutics, Inc., priority 2020, dated 2023).)
